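48-hour exposure; five concentrations; linearly interpolated endpoints. GI50 = concentration required for 50% inhibition of growth. The concentration for full growth arrest is given as TGI.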
What was measured:
Experiment in all cases: DTP human tumour cell line panel, 48 h; in the data active means GI50 below about 0.43 µM; inactive means the rest
[1] = system: HT29 colon
[2] = system: U251 CNS
[3] = system: NCI/ADR-RES ovarian
[4] = system: IGROV1 ovarian
[5] = system: UO-31 renal
[6] = system: NCI-H460 lung
[7] = system: OVCAR-8 ovarian
[8] = system: SNB-75 CNS
[9] = system: DU-145 prostate
[10] = system: HCT-116 colon
[11] = system: RXF 393 renal
[12] = system: SF-268 CNS
[13] = system: HCC-2998 colon
[14] = system: A498 renal
[15] = system: SK-OV-3 ovarian
[16] = system: MDA-MB-435
[17] = system: SK-MEL-2 melanoma
[18] = system: LOX IMVI melanoma
[19] = system: ACHN renal
[20] = system: SF-295 CNS
[21] = system: A549 NSCLC
[22] = system: K-562 leukemia
[23] = system: COLO 205 colon
[24] = system: EKVX NSCLC
[25] = system: UACC-257 melanoma
[26] = system: OVCAR-3 ovarian
[27] = system: HOP-92 NSCLC
[28] = system: SF-539 CNS
[29] = system: SW-620 colon
[30] = system: RPMI-8226 leukemia
[31] = system: OVCAR-5 ovarian
[32] = system: 786-0 renal
[33] = system: SK-MEL-5 melanoma
[34] = system: KM12 colon
[35] = system: MOLT-4 leukemia
[36] = system: NCI-H522 lung
[37] = system: M14 melanoma
[38] = system: BT-549 breast
[39] = system: CAKI-1 renal
[40] = system: T-47D breast
[41] = system: MDA-MB-231 breast
[42] = system: TK-10 renal
[43] = system: MALME-3M melanoma
[44] = system: MCF7 breast
[45] = system: PC-3 prostate
[46] = system: HS 578T breast
[47] = system: SK-MEL-28 melanoma
[48] = system: HOP-62 NSCLC
[49] = system: NCI-H226 lung
[50] = system: SN12C renal
[51] = system: NCI-H23 lung
[52] = system: SNB-19 CNS
[53] = system: CCRF-CEM leukemia
[54] = system: UACC-62 melanoma
[55] = system: HCT-15 colon
[56] = system: HL-60(TB) leukemia
[57] = system: OVCAR-4 ovarian

O=C(O)[C@@H]1CCCN1Cc1cc2cc3c(cc2c2cc(OCc4ccccc4)ccc12)OCO3
60.9 µM: TGI [30]
45.5 µM: TGI [17]
33.2 µM: TGI [54]
71.8 µM: TGI [25]
62.6 µM: TGI [4]
> 100 µM: TGI [2] | TGI [3] | TGI [5] | TGI [7] | TGI [10] | TGI [13] | TGI [21] | TGI [22] | TGI [32] | TGI [34] | TGI [35] | TGI [37] | TGI [45] | TGI [48] | TGI [51] | TGI [53] | TGI [55]
31.6 µM: TGI [33]
81.3 µM: TGI [15]
52.9 µM: TGI [38]
72.7 µM: TGI [50]
43.6 µM: TGI [26]
65.9 µM: TGI [9]
54 µM: TGI [40]
37.2 µM: TGI [1]
45 µM: TGI [20]
60.1 µM: TGI [28] | TGI [43]
50.5 µM: TGI [49]
42.6 µM: TGI [11] | TGI [41]
45.3 µM: TGI [14]
48.3 µM: TGI [52]
54.9 µM: TGI [31]
61.7 µM: TGI [24]
52.4 µM: TGI [8]
77.7 µM: TGI [42]
31.7 µM: TGI [18]
54.6 µM: TGI [29]
55.9 µM: TGI [12]
58.4 µM: TGI [16]
58.3 µM: TGI [36]
63.3 µM: TGI [27]
44.6 µM: TGI [6]
30.6 µM: TGI [23]
inactive: GI50 [1] 18 µM | GI50 [2] 30.1 µM | GI50 [3] 43.9 µM | GI50 [4] 24.1 µM | GI50 [5] 24.3 µM | GI50 [6] 17.8 µM | GI50 [7] 30.8 µM | GI50 [8] 21.1 µM | GI50 [9] 19.4 µM | GI50 [10] 37.6 µM | GI50 [11] 20.6 µM | GI50 [12] 24.4 µM | GI50 [13] 36.4 µM | GI50 [14] 13.5 µM | GI50 [15] 32.4 µM | GI50 [16] 23.4 µM | GI50 [17] 20.1 µM | GI50 [18] 17.1 µM | GI50 [19] 26.1 µM | GI50 [20] 18.3 µM | GI50 [21] 27.1 µM | GI50 [22] 28.7 µM | GI50 [23] 14.7 µM | GI50 [24] 21.8 µM | GI50 [25] 28.9 µM | GI50 [26] 17.5 µM | GI50 [27] 21.9 µM | GI50 [28] 25.1 µM | GI50 [29] 14.1 µM | GI50 [30] 17 µM | GI50 [31] 21.4 µM | GI50 [32] 55 µM | GI50 [33] 14.7 µM | GI50 [34] 31.8 µM | GI50 [35] 30.7 µM | GI50 [36] 23.7 µM | GI50 [37] 46.1 µM | GI50 [38] 22.6 µM | GI50 [39] 20.3 µM | GI50 [40] 19.2 µM | GI50 [41] 15 µM | GI50 [42] 27.8 µM | GI50 [43] 25.8 µM | GI50 [44] 17.2 µM | GI50 [45] 29.8 µM | GI50 [46] 17.6 µM | GI50 [47] 19.4 µM | GI50 [48] 51.2 µM | GI50 [49] 21.8 µM | GI50 [50] 23.1 µM | GI50 [51] 38.4 µM | GI50 [52] 18.5 µM | GI50 [53] 23.2 µM | GI50 [54] 16.8 µM | GI50 [55] 28.5 µM
86.6 µM: TGI [19]
43.9 µM: TGI [44] | TGI [47]
49.2 µM: TGI [46]
53.6 µM: TGI [39]

CC(C)=NN/C(=N\S(=O)(=O)c1cc2ccccc2s1)Nc1ccc(Cl)cc1
60.2 µM: TGI [24]
> 100 µM: TGI [56] | TGI [1] | TGI [2] | TGI [3] | TGI [4] | TGI [5] | TGI [6] | TGI [7] | TGI [9] | TGI [10] | TGI [12] | TGI [16] | TGI [17] | TGI [18] | TGI [20] | TGI [21] | TGI [57] | TGI [22] | TGI [23] | TGI [25] | TGI [26] | TGI [27] | TGI [29] | TGI [30] | TGI [31] | TGI [32] | TGI [33] | TGI [34] | TGI [35] | TGI [36] | TGI [37] | TGI [38] | TGI [39] | TGI [41] | TGI [42] | TGI [43] | TGI [44] | TGI [45] | TGI [46] | TGI [47] | TGI [48] | TGI [49] | TGI [50] | TGI [51] | TGI [52] | TGI [53] | TGI [54] | TGI [55]
76.3 µM: TGI [40]

Reference: PubChem BioAssay (NCI)
